Legend:
[1] = target: T1, Heparanase (Homo sapiens) (UniProt Q9Y251); assay: Inhibitory activity against heparanase from human platelets at 0.83 uM
T1 sequence (whole entry): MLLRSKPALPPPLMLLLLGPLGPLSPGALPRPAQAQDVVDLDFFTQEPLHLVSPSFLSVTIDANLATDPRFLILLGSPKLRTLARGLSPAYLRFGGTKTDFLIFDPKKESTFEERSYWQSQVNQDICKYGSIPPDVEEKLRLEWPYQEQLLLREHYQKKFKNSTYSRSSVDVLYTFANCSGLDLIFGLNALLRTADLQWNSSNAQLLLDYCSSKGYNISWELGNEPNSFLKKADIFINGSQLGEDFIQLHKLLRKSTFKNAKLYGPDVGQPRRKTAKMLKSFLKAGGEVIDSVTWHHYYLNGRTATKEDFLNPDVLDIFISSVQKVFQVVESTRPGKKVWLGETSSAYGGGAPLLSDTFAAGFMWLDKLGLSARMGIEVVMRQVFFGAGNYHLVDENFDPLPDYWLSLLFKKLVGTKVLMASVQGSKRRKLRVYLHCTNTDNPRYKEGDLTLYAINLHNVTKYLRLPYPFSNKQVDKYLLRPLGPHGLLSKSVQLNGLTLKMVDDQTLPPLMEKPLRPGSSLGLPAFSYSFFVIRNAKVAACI

[2] = target: T1, Heparanase (Homo sapiens); assay: Inhibitory activity against heparanase from human platelets at 25 uM
Heparanase = target: T2, Heparanase (Homo sapiens, UniProt Q9Y251); assay: Inhibitory activity against heparanase from human platelets
T2 sequence (Q9Y251 whole entry): T1 sequence (whole entry)

[3] = Plasma concentration in mice after 4 hrs of administration of 30 mg/kg, po; assay type: ADME, organism-based; set-up: dose 30 mg/kg, route oral; details: mouse
[4] = Plasma concentration in mice after 1 hr of administration of 30 mg/kg, po; assay type: ADME, organism-based; set-up: dose 30 mg/kg, route oral; details: mouse
[5] = Plasma concentration in mice after 1 hr of administration of 50 mg/kg, ip; assay type: ADME, organism-based; set-up: dose 50 mg/kg, route intraperitoneal; details: mouse
[6] = Plasma concentration in mice after 4 hrs of administration of 50 mg/kg, ip; assay type: ADME, organism-based; set-up: dose 50 mg/kg, route intraperitoneal; details: mouse

COc1ccc(C(=O)Nc2ccc(CNc3cccc(-c4nc5ccccc5[nH]4)c3)cc2)cc1Br
inhibition [1]: < 10%

COc1ccc(C(=O)Nc2cccc(CNc3ccc(-c4nc5ccccc5[nH]4)cc3)c2)cc1Br
inhibition [1]: < 10%

COc1ccc(C(=O)Nc2ccc(CNc3ccc(Cc4nc5ccccc5[nH]4)cc3)cc2)cc1Br
inhibition [1]: < 10%

CCOc1ccc(C(=O)Nc2ccc(-c3nc4cc(OC)ccc4[nH]3)cc2)cc1Br
inhibition [2]: 73%

CCOc1ccc(C(=O)Nc2ccc(-c3nc4cc(OC)c(OC)cc4[nH]3)cc2)cc1Br
inhibition [2]: 35%

COc1ccc(C(=O)Nc2ccc(-c3nc4ccccc4[nH]3)cc2)cc1F
IC50 (Heparanase): > 15 µM

COc1ccc(NC(=O)c2ccc(-c3nc4ccccc4[nH]3)cc2)cc1Br
IC50 (Heparanase): > 15 µM

COc1ccc(C(=O)Nc2ccc(CNc3ccc(-c4nc5ccccc5[nH]4)cn3)cc2)cc1Br
concentration at 4 h [3]: 5500 nM | concentration at 1 h [4]: 3800 nM

CCOc1ccc(C(=O)Nc2ccc(-c3nc4ccccc4[nH]3)cc2)cc1Br
concentration at 1 h [5]: 530 nM | concentration at 4 h [6]: 380 nM

COc1ccc(C(=O)N(C)c2ccc(-c3nc4ccccc4[nH]3)cc2)cc1Br
IC50 (Heparanase): > 15 µM

COc1ccc(C(=O)Nc2ccc(-c3nc4ccccc4[nH]3)cc2)cc1Cl
IC50 (Heparanase): > 15 µM

CCOc1ccc(C(=O)Nc2ccc(-c3nc4cc(Cl)c(Cl)cc4[nH]3)cc2)cc1Br
inhibition [2]: 30%

COc1ccc(C(=O)Nc2ccc(-c3nc4ccccc4[nH]3)cc2)cc1Br
concentration at 1 h [5]: 2240 nM | concentration at 4 h [6]: 670 nM

CCOc1ccc(C(=O)Nc2ccc(-c3nc4cc(C)c(Cl)cc4[nH]3)cc2)cc1Br
inhibition [2]: 30%

COc1ccc(CC(=O)Nc2ccc(-c3nc4ccccc4[nH]3)cc2)cc1Br
IC50 (Heparanase): > 15 µM

COc1ccc(CNc2ccc(-c3nc4ccccc4[nH]3)cc2)cc1Br
IC50 (Heparanase): > 15 µM

COc1ccc(S(=O)(=O)Nc2ccc(-c3nc4ccccc4[nH]3)cc2)cc1Br
IC50 (Heparanase): > 15 µM

Reference: ChEMBL document CHEMBL1147775, “N-(4-{[4-(1H-Benzoimidazol-2-yl)-arylamino]-methyl}-phenyl)-benzamide derivatives as small molecule heparanase inhibitors” (Bioorg Med Chem Lett, 2006)
